Here are results for one molecule from patent publication US11819491B2, “Dilutable formulations of cannabinoids and processes for their preparation” (Yissum Research Development Company of the Hebrew …, priority 2016, dated 2023).

The series in a line: Stability of CBD in simulated gastric fluid (SGF). The series is classed as physicochemical. The conditions noted are these: 37° C. The protocol: A medium of stimulating gastric fluid (SGF) was prepared by dissolving sodium chloride (0.2 w/v %) and hydrochloric acid (0.1M) in DDW, and incubated at 37° C.
For MeOH solution sodium dodecyl sulfate (1 w/v %) was added to the SGF. 500 ml of SGF mediums was contained in an appropriate Erlenmeyer flask. At time 0-1 ml of each CBD stock solution was added to the SGF. The mixture was vigorously shaken at a water bath warmed to 37° C. and immediately 1 ml of the solution was sampled and replaced with an equal volume of preheated SGF medium. Similarly, same volume was sampled at 5, 10, 15, 20, 30, 45, 60, 75, 90, 120, 150 and 180 minutes. Each 1 mL sample was immediately neutralized to a pH of 7 to 9, with 980 μL of 0.1M sodium hydroxide solution and 3 ml MeOH, and pH levels were tested. All samples were kept at 4° C. until HPLC analysis.
For MeOH solution and AX1 system additional samples were taken every 30 min and injected directly into the HPLC without further treatment. […] The measured CBD concentration was divided to the initial concentration (C/C0) at each time point.
In comparison, the CBD profile in SGF with a commercial product (‘RSHO’™—containing CBD dissolved in vegetable oil) and CBD dissolved in pure olive oil were evaluated.

For `C=C(C)[C@@H]1CCC(C)=C[C@H]1c1c(O)cc(CCCCC)cc1O` [CBD in MeOH, cannabidiol], the “Start of CBD degradation” value is 5 min. For the setting “after 2 hours”, the CBD left result was “less than 4%”. Further, the “CBD degradation in SGF (in words)” value (up to 180 min) was “significant degradation over time”. In addition, the CBD decomposed (within 30 min) is reported as 68%.
